A short description of data set [1]: Half life in human liver microsomes measured upto 40 mins by LC-MS/MS analysis. Format: ADME, Microsome. (In general: Liver microsomes are a subcellular fraction often used to study metabolism.)
Data set [2] can be described thus: Intrinsic clearance in human liver microsomes measured upto 40 mins by LC-MS/MS analysis. Format: ADME, Microsome. Particulars: read-out: CLH.
The nature of data set [3]: Half life in mouse liver microsomes measured upto 40 mins by LC-MS/MS analysis.
The nature of data set [4]: Selectivity index, ratio of IC50 for cytotoxicity against human HepG2-A16-CD81EGFP cells to IC50 for antiplasmodial activity against drug-sensitive asexual intraerythrocytic stage of Plasmodium falciparum 3D7 infected in human O+ erythrocytes.
Data set [5] concerns Plasmodium falciparum. Kind of data set: Resistance index, ratio of IC50 for antiplasmodial activity against multidrug-resistant asexual intraerythrocytic stage of Plasmodium falciparum Dd2 to IC50 for antiplasmodial activity against drug-sensitive asexual intraerythrocytic stage of Plasmodium falciparum 3D7 infected in human O+ erythrocytes by [3H]-hypoxanthine incorporation assay. Format: functional.

For data set [6], the system named is HepG2. Description: Cytotoxicity against human HepG2-A16-CD81EGFP cells assessed as inhibition of cell growth incubated for 24 hrs followed by medium transfer and incubation in multimode plate for 48 hrs by CellTiterGlo reagent based luminescence assay.
For data set [7], the system named is Plasmodium berghei. Description: Antimalarial activity against Plasmodium berghei QIMR infected in BALB/c mouse assessed as reduction in peripheral blood parasitemia at 25 mg/kg, po bid for 4 days starting from 2 hrs post infection and measured on 4 to 6 days post-infection by Giemsa staining based microscopic analysis relative to control. Format: functional. Particulars: time 4-6 day.

The nature of data set [8]: Intrinsic clearance in mouse liver microsomes measured upto 40 mins by LC-MS/MS analysis.
Data set [9] concerns Plasmodium berghei. Kind of data set: microbe, parasite or virus in culture. Format: functional, organism-based.
Data set [10] concerns Plasmodium falciparum. Description: Antiplasmodial activity against multidrug-resistant asexual intraerythrocytic stage of Plasmodium falciparum Dd2 assessed as inhibition of parasite growth incubated for 48 hrs followed by addition of [3H]hypoxanthine for 24 hrs by [3H]hypoxanthine incorporation assay. Format: functional, organism-based.
The target in data set [11] is Histone deacetylase 1 (Homo sapiens, UniProt Q13547).
Description: Inhibition of C-terminal FLAG/His-tagged human recombinant HDAC1 (1 to 482 residues) expressed in baculovirus infected Sf9 cells using ZMAL (Z-Lys(Ac)-AMC) as fluorogenic substrate incubated for 90 mins by fluorescence based assay
In data set [12] the test system is Plasmodium falciparum. Description: microbe, parasite or virus in culture. Format: functional, organism-based. Particulars: 3D7, Erythrocyte.
In data set [13] the test system is Plasmodium falciparum 3D7. Description: Inhibition of HDAC in trophozite-stage of Plasmodium falciparum 3D7 infected in erythrocytes assessed as hyperacetylation of histone H4 at lysine residue at 5 x IC50 incubated for 3 hrs by western blot analysis. Format: cell-based. In general terms: A western blot detects proteins with antibodies after separation by electrophoresis.

Data set [14] is described as follows: Selective index, ratio of IC50 for human HepG2-A16-CD81EGFP cells to IC50 for antiplasmodial activity against liver stage exo-erythrocytic forms of Plasmodium berghei sporozoites infected in human HepG2-A16-CD81EGFP cells.
Data set [15] deals with T1, Protein deacetylase HDAC6 (Homo sapiens, UniProt Q9UBN7).
T1 sequence (Q9UBN7 whole entry): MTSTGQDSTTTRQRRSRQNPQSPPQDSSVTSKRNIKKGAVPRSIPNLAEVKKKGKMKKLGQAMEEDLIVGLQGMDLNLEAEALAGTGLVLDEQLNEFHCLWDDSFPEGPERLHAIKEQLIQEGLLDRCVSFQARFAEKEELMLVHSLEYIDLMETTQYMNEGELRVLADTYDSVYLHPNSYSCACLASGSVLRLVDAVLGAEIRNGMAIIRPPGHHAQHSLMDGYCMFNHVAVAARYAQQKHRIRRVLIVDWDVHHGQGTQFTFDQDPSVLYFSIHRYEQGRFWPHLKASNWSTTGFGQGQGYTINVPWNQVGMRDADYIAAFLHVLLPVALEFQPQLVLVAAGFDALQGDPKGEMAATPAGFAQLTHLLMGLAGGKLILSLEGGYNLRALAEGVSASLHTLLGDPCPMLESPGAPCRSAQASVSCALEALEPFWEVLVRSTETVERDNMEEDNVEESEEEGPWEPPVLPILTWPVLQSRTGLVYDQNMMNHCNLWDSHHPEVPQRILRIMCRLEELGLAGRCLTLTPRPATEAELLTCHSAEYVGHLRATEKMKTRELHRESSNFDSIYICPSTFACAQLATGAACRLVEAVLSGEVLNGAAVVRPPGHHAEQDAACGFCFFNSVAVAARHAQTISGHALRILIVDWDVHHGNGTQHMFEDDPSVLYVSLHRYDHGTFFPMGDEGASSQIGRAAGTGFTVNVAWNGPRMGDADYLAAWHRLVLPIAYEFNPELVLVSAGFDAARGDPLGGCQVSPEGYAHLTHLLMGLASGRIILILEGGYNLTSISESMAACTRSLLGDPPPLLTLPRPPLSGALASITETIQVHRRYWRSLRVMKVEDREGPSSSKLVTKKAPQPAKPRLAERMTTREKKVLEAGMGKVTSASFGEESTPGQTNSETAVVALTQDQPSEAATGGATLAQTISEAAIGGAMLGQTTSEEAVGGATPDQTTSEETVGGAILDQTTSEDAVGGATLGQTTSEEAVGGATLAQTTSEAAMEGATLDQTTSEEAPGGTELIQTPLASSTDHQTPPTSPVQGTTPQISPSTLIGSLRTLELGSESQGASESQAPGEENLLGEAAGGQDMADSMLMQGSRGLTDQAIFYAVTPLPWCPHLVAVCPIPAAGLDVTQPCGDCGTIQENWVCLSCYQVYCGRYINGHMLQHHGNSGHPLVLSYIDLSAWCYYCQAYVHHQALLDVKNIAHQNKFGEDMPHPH
Kind of data set: biochemical.
Description: Inhibition of N-terminal GST-tagged full length human recombinant HDAC6 expressed in baculovirus infected Sf9 cells using ZMAL (Z-Lys(Ac)-AMC) fluorogenic substrate incubated for 90 mins by fluorescence based assay

Active and inactive are the calls of the source. No cut-off for these calls is given here. Some results are limits rather than exact numbers.

Chain of Histone deacetylase 1 (Q13547 whole entry): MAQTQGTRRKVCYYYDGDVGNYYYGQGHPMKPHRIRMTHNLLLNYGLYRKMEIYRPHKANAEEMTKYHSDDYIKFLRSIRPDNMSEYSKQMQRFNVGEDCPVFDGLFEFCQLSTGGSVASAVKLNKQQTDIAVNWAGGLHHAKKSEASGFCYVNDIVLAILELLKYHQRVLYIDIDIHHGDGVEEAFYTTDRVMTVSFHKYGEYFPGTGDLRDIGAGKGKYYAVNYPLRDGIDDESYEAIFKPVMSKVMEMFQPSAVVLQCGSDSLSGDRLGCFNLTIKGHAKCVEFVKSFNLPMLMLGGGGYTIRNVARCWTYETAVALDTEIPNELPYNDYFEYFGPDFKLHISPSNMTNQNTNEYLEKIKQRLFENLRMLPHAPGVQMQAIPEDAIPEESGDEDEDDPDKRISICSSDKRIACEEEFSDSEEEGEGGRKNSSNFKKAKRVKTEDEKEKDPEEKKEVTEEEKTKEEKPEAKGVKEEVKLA

Take `Cn1c(=O)c2c(ncn2C)n(C)c1=O` [CAFFEINE]: the half-life in data set [1] amounted to 1030 min. Further, the microsomal CLint in data set [2] amounted to 2 µL/min/mg.

As to `CC(C)NCC(O)COc1cccc2ccccc12` (centres undefined) [PROPRANOLOL], in [3] (microsomes), the half-life at 40 min is 54.3 min.

As to `O=C(CN(Cc1ccc(C(=O)NO)cc1)C(=O)c1cccc2ccccc12)NCc1ccccc1`, the selectivity ratio in [4] was determined as 376; in data set [14] it was 20. In addition, in data set [5], the “Ratio IC50” value turned out to be 0.4. The IC50 in [6] was 12800 nM; in data set [9], 630 nM; in [10] it was 14 nM; in data set [11], 130 nM; in data set [12], 34 nM; in [15], 10 nM. In addition, in data set [7], the inhibition in vivo at 25 mg/kg came out at 25.9%. The half-life in data set [1] came out at 41.4 min. This molecule gave a half-life at 40 min in data set [3] (liver microsomes) of 19.3 min. In data set [8], this molecule showed a microsomal CLint at 40 min of 87 µL/min/mg. For the same molecule, the inhibition entry in data set [13] is “Active”. Also, the microsomal CLint in data set [2] is 41 µL/min/mg.

Regarding `Cc1cc(C)cc(C(=O)N(CC(=O)N2CCCCC2)Cc2ccc(C(=O)NO)cc2)c1`, the selectivity ratio in [4] amounted to 69; in [14] it was 5. The IC50 in data set [6] is 35000 nM; in data set [9], 6560 nM; in [11], 4050 nM; in data set [12], 509 nM; in data set [15], 130 nM.

Turning to `CC(C)c1ccc(C(=O)N(Cc2ccc(C(=O)NO)cc2)C(C)(C)C(=O)NCc2ccccc2)cc1`, the selectivity ratio is greater than 352 in data set [4] and greater than 6 in data set [14]. The IC50 in data set [6] is greater than 50000 nM; in data set [9], 8670 nM; in data set [11], 280 nM; in [12], 142 nM; in [15] it was 60 nM.

`O=C(O)Cc1ccccc1Nc1c(Cl)cccc1Cl` [DICLOFENAC] returned a half-life in [1] of 6.8 min. For the same molecule, in [2], the microsomal CLint was determined as 248 µL/min/mg.

Turning to `Cc1ccc(C(=O)N(CC(=O)NC2CCCCC2)Cc2ccc(C(=O)NO)cc2)c(C)c1`, the selectivity ratio amounted to 1040 in [4] and 139 in [14]. Further, the “Ratio IC50” value in [5] amounted to 0.5. In addition, the 50% inhibitory concentration (IC50) was 8330 nM in [6]; 60 nM in [9]; 4 nM in data set [10]; 260 nM in data set [11]; 8 nM in data set [12]; 40 nM in data set [15]. Further, in data set [7], the inhibition in vivo at 25 mg/kg amounted to 31%. For the same molecule, the half-life in data set [1] is 12.2 min. Further, the half-life at 40 min in data set [3] (liver microsomes) turned out to be 17.9 min. In addition, in [8], the microsomal CLint at 40 min came out at 94 µL/min/mg. In [13], the inhibition result is “inactive”. In [2], the microsomal CLint worked out at 139 µL/min/mg.

With `CC(C)c1ccc(C(=O)N(Cc2ccc(C(=O)NO)cc2)C(C)(C)C(=O)NC2CCCCC2)cc1`, the selectivity ratio was greater than 495 in data set [4] and greater than 10 in data set [14]. In addition, the “Ratio IC50” value in data set [5] is on record as 0.3. Moreover, the IC50 is greater than 50000 nM in data set [6]; 4900 nM in [9]; 33 nM in [10]; 970 nM in data set [11]; 101 nM in data set [12]; 270 nM in [15]. Also, the inhibition in vivo at 25 mg/kg in [7] worked out at 0.5%. The molecule further showed a half-life in [1] of 11.7 min. Moreover, the half-life at 40 min in data set [3] (liver microsomes) came to 55.6 min. The molecule also displayed a microsomal CLint at 40 min in data set [8] of 30 µL/min/mg. Moreover, in data set [13], the inhibition result is “inactive”. For the same molecule, in data set [2], the microsomal CLint amounted to 144 µL/min/mg.

Turning to `Cc1ccccc1C(=O)N(CC(=O)NC12CC3CC(CC(C3)C1)C2)Cc1ccc(C(=O)NO)cc1`, the selectivity ratio worked out at 102 in data set [4] and 24 in data set [14]. The IC50 came to 13000 nM in data set [6]; 540 nM in [9]; 100 nM in [11]; 127 nM in data set [12]; 30 nM in [15].

`CC(C)c1ccc(CC(=O)N(CC(=O)NCc2ccccc2)Cc2ccc(C(=O)NO)cc2)cc1`: the figures for the selectivity ratio in [4] and in data set [14] were 395 and 11, respectively. The “Ratio IC50” value in [5] came to 0.3. Besides, the IC50 in [6] came out at 30000 nM; in [9], 2700 nM; in data set [10], 23 nM; in data set [11], 780 nM; in [12], 76 nM; in [15], 20 nM. Moreover, in data set [13], the inhibition entry was “Active”.

Turning to `CN(C)c1ccc(C(=O)N(Cc2ccc(C(=O)NO)cc2)C(C)(C)C(=O)NCc2ccccc2)cc1`, the figures for the selectivity ratio in data set [4] and in [14] were greater than 311 and greater than 12, respectively. Further, the half-maximal inhibitory concentration (IC50) in [6] was greater than 50000 nM; in [9], 4270 nM; in [11], 440 nM; in [12] it was 161 nM; in data set [15] it was 70 nM.

For the molecule `O=C(CN(Cc1ccc(C(=O)NO)cc1)C(=O)Cc1ccccc1)NCc1ccccc1`, the results for the selectivity ratio in data set [4] and in data set [14] were 103 and 24, respectively. In addition, the IC50 was found to be 21900 nM in data set [6]; 920 nM in data set [9]; 600 nM in [11]; 213 nM in [12]; 30 nM in data set [15].

For the molecule `CC(C)c1ccc(CC(=O)N(CC(=O)NC2CCCCC2)Cc2ccc(C(=O)NO)cc2)cc1`, the selectivity ratio was found to be 117 in data set [4] and 12 in [14]. For the same molecule, the IC50 in data set [6] stood at 25100 nM; in [9], 2020 nM; in data set [11], 2030 nM; in data set [12] it was 215 nM; in data set [15] it was 40 nM.

On to `O=C(CN(Cc1ccc(C(=O)NO)cc1)C(=O)Cc1ccccc1)NC1CCCCC1`, for which the selectivity ratio in data set [4] was greater than 178; in [14] it was greater than 61. Further, the IC50 in data set [6] is greater than 50000 nM; in data set [9], 820 nM; in data set [11], 2430 nM; in data set [12], 281 nM; in [15] it was 50 nM.

In turn, `CC(C)c1ccc(NC(=O)CN(Cc2ccc(C(=O)NO)cc2)C(=O)Cc2ccccc2)cc1` displayed a half-life in data set [1] of 23.5 min. In [3] (liver microsomes), this molecule gave a half-life at 40 min of 44.3 min. In addition, the microsomal CLint at 40 min in data set [8] was found to be 38 µL/min/mg. In addition, in data set [2], the microsomal CLint turned out to be 72 µL/min/mg.

`Cc1cc(C)cc(C(=O)N(CC(=O)N(C)C)Cc2ccc(C(=O)NO)cc2)c1`: the selectivity ratio in data set [4] was greater than 48. In addition, the IC50 is greater than 50000 nM in data set [6]; 8250 nM in [9]; 8000 nM in [11]; 1040 nM in data set [12]; 230 nM in data set [15].

Take `CC(C)c1ccc(C(=O)N(CC(=O)NC23CC4CC(CC(C4)C2)C3)Cc2ccc(C(=O)NO)cc2)cc1`: the figures for the selectivity ratio in data set [4] and in data set [14] were 154 and 13, respectively. Further, the “Ratio IC50” value in [5] came to 0.2. Besides, the IC50 in data set [6] is 4320 nM; in [9] it was 340 nM; in data set [10], 6 nM; in [11], 300 nM; in [12], 28 nM; in [15], 250 nM.

`O=C(CCCCCCC(=O)Nc1ccccc1)NO` [VORINOSTAT]: in data set [6], the IC50 came out at 7600 nM.

A word on the half-life: it is the time in which the quantity being followed falls by half. The term IC50 denotes the midpoint of a concentration-inhibition curve. As a reminder, the inhibition in vivo is the drop in the measured response relative to a control, in per cent.

The values are drawn from ChEMBL document CHEMBL4811220, “Investigation of the in vitro and in vivo efficacy of peptoid-based HDAC inhibitors with dual-stage antiplasmodial activity” (Eur J Med Chem, 2021).
